Results published in the supplement of paper PMC10307832.

Legend:
Assay in all cases: relative viability (nuclei count vs DMSO), 5 days (fraction); higher = more cells survive
NCI-H2405 = test system: NCI-H2405
How it was run: (§1)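 After 5 days of treatment, lung cancer cells in 1536-well plates were fixed and stained in a single step (final 0.05% Triton X-100, 1% formaldehyde, 1 ug/ml Hoechst) and their nuclei counted on 4× images. Treatment had been applied by pin tool the day after seeding as one drug alone or as a fixed anchor-drug dose with five library-drug doses (not always all listed) in √10 steps. Relative viability is the nuclei count of treated wells divided by that of vehicle wells, and values are medians of duplicate plates.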

LC-2-ad = test system: LC-2-ad
How it was run: as §1

NCI-H2087 = test system: NCI-H2087
How it was run: as §1

COR-L 105 = test system: COR-L 105
How it was run: as §1

NCI-H23 = test system: NCI-H23
How it was run: as §1

201T = test system: 201T
How it was run: as §1

NCI-H650 = test system: NCI-H650
How it was run: as §1

NCI-H1915 = test system: NCI-H1915
How it was run: as §1

H3255 = test system: H3255
How it was run: as §1

EPLC-272H = test system: EPLC-272H
How it was run: as §1

NCI-H2126 = test system: NCI-H2126
How it was run: as §1

HCC-827 = test system: HCC-827
How it was run: as §1

NCI-H661 = test system: NCI-H661
How it was run: as §1

NCI-H2347 = test system: NCI-H2347
How it was run: as §1

ChaGo-K-1 = test system: ChaGo-K-1
How it was run: as §1

RERF-LC-KJ = test system: RERF-LC-KJ
How it was run: as §1

NCI-H647 = test system: NCI-H647
How it was run: as §1

HCC-78 = test system: HCC-78
How it was run: as §1

LCLC-97TM1 = test system: LCLC-97TM1
How it was run: as §1

PC-14 = test system: PC-14
How it was run: as §1

NCI-H1666 = test system: NCI-H1666
How it was run: as §1

NCI-H520 = test system: NCI-H520
How it was run: as §1

Compound: CCN(CC)CCCCNc1ncc2cc(-c3cc(OC)cc(OC)c3)c(NC(=O)NC(C)(C)C)nc2n1 + O=C(CCCCCCC(=O)Nc1ccccc1)NO [Vorinostat] (partner 1 µM)
- relative viability (NCI-H2405; first compound 0.01 µM): 0.795
- relative viability (NCI-H2405; first compound 0.03162 µM): 1.03
- relative viability (NCI-H2405; first compound 0.1 µM): 1.08
- relative viability (NCI-H2405; first compound 0.3162 µM): 1.22
- relative viability (NCI-H2405; first compound 1 µM): 0.94
- relative viability (LC-2-ad; first compound 0.01 µM): 0.716
- relative viability (LC-2-ad; first compound 0.03162 µM): 0.798
- relative viability (LC-2-ad; first compound 0.1 µM): 0.76
- relative viability (LC-2-ad; first compound 0.3162 µM): 0.739
- relative viability (LC-2-ad; first compound 1 µM): 0.66
- relative viability (NCI-H2087; first compound 0.01 µM): 0.669
- relative viability (NCI-H2087; first compound 0.03162 µM): 0.71
- relative viability (NCI-H2087; first compound 0.1 µM): 0.893
- relative viability (NCI-H2087; first compound 0.3162 µM): 0.886
- relative viability (NCI-H2087; first compound 1 µM): 0.514
- relative viability (COR-L 105; first compound 0.01 µM): 0.771
- relative viability (COR-L 105; first compound 0.03162 µM): 0.774
- relative viability (COR-L 105; first compound 0.1 µM): 0.981
- relative viability (COR-L 105; first compound 0.3162 µM): 0.796
- relative viability (COR-L 105; first compound 1 µM): 0.805
- relative viability (NCI-H23; first compound 0.01 µM): 0.615
- relative viability (NCI-H23; first compound 0.03162 µM): 0.711
- relative viability (NCI-H23; first compound 0.1 µM): 0.715
- relative viability (NCI-H23; first compound 0.3162 µM): 0.467
- relative viability (NCI-H23; first compound 1 µM): 0.581
- relative viability (201T; first compound 0.01 µM): 1
- relative viability (201T; first compound 0.03162 µM): 1.03
- relative viability (201T; first compound 0.1 µM): 0.973
- relative viability (201T; first compound 0.3162 µM): 0.981
- relative viability (201T; first compound 1 µM): 0.887
- relative viability (NCI-H650; first compound 0.01 µM): 0.349
- relative viability (NCI-H650; first compound 0.03162 µM): 0.433
- relative viability (NCI-H650; first compound 0.1 µM): 0.498
- relative viability (NCI-H650; first compound 0.3162 µM): 0.525
- relative viability (NCI-H650; first compound 1 µM): 0.422
- relative viability (NCI-H1915; first compound 0.01 µM): 0.452
- relative viability (NCI-H1915; first compound 0.03162 µM): 0.531
- relative viability (NCI-H1915; first compound 0.1 µM): 0.537
- relative viability (NCI-H1915; first compound 0.3162 µM): 0.456
- relative viability (NCI-H1915; first compound 1 µM): 0.513
- relative viability (H3255; first compound 0.01 µM): 0.702
- relative viability (H3255; first compound 0.1 µM): 0.946
- relative viability (H3255; first compound 0.3162 µM): 1.02
- relative viability (H3255; first compound 1 µM): 0.785
- relative viability (EPLC-272H; first compound 0.01 µM): 0.4
- relative viability (EPLC-272H; first compound 0.03162 µM): 0.537
- relative viability (EPLC-272H; first compound 0.1 µM): 0.277
- relative viability (EPLC-272H; first compound 0.3162 µM): 0.493
- relative viability (EPLC-272H; first compound 1 µM): 0.335
- relative viability (NCI-H2126; first compound 0.01 µM): 0.771
- relative viability (NCI-H2126; first compound 0.03162 µM): 0.834
- relative viability (NCI-H2126; first compound 0.1 µM): 0.807
- relative viability (NCI-H2126; first compound 0.3162 µM): 0.834
- relative viability (NCI-H2126; first compound 1 µM): 0.822
- relative viability (HCC-827; first compound 0.01 µM): 0.883
- relative viability (HCC-827; first compound 0.03162 µM): 0.969
- relative viability (HCC-827; first compound 0.1 µM): 0.866
- relative viability (HCC-827; first compound 0.3162 µM): 0.937
- relative viability (HCC-827; first compound 1 µM): 0.674
- relative viability (NCI-H661; first compound 0.01 µM): 0.781
- relative viability (NCI-H661; first compound 0.03162 µM): 0.757
- relative viability (NCI-H661; first compound 0.1 µM): 0.856
- relative viability (NCI-H661; first compound 0.3162 µM): 0.839
- relative viability (NCI-H661; first compound 1 µM): 0.741
- relative viability (NCI-H2347; first compound 0.01 µM): 0.509
- relative viability (NCI-H2347; first compound 0.03162 µM): 0.543
- relative viability (NCI-H2347; first compound 0.1 µM): 0.705
- relative viability (NCI-H2347; first compound 0.3162 µM): 0.588
- relative viability (NCI-H2347; first compound 1 µM): 0.472
- relative viability (ChaGo-K-1; first compound 0.01 µM): 0.776
- relative viability (ChaGo-K-1; first compound 0.03162 µM): 0.822
- relative viability (ChaGo-K-1; first compound 0.1 µM): 0.824
- relative viability (ChaGo-K-1; first compound 0.3162 µM): 0.827
- relative viability (ChaGo-K-1; first compound 1 µM): 0.693
- relative viability (RERF-LC-KJ; first compound 0.01 µM): 0.748
- relative viability (RERF-LC-KJ; first compound 0.03162 µM): 0.71
- relative viability (RERF-LC-KJ; first compound 0.1 µM): 0.764
- relative viability (RERF-LC-KJ; first compound 0.3162 µM): 0.794
- relative viability (RERF-LC-KJ; first compound 1 µM): 0.661
- relative viability (NCI-H647; first compound 0.01 µM): 0.525
- relative viability (NCI-H647; first compound 0.03162 µM): 0.645
- relative viability (NCI-H647; first compound 0.1 µM): 0.582
- relative viability (NCI-H647; first compound 0.3162 µM): 0.511
- relative viability (NCI-H647; first compound 1 µM): 0.491
- relative viability (HCC-78; first compound 0.01 µM): 0.479
- relative viability (HCC-78; first compound 0.03162 µM): 0.487
- relative viability (HCC-78; first compound 0.1 µM): 0.478
- relative viability (HCC-78; first compound 0.3162 µM): 0.456
- relative viability (HCC-78; first compound 1 µM): 0.497
- relative viability (LCLC-97TM1; first compound 0.01 µM): 0.805
- relative viability (LCLC-97TM1; first compound 0.03162 µM): 0.779
- relative viability (LCLC-97TM1; first compound 0.1 µM): 0.615
- relative viability (LCLC-97TM1; first compound 0.3162 µM): 0.865
- relative viability (LCLC-97TM1; first compound 1 µM): 0.699
- relative viability (PC-14; first compound 0.01 µM): 0.708
- relative viability (PC-14; first compound 0.03162 µM): 0.84
- relative viability (PC-14; first compound 0.1 µM): 0.969
- relative viability (PC-14; first compound 0.3162 µM): 0.881
- relative viability (PC-14; first compound 1 µM): 0.622
- relative viability (NCI-H1666; first compound 0.01 µM): 1.13
- relative viability (NCI-H1666; first compound 0.03162 µM): 1.01
- relative viability (NCI-H1666; first compound 0.1 µM): 1.04
- relative viability (NCI-H1666; first compound 0.3162 µM): 1.1
- relative viability (NCI-H1666; first compound 1 µM): 1.05
- relative viability (NCI-H520; first compound 0.01 µM): 0.783
- relative viability (NCI-H520; first compound 0.03162 µM): 0.731
- relative viability (NCI-H520; first compound 0.1 µM): 0.673
- relative viability (NCI-H520; first compound 0.3162 µM): 0.633
- relative viability (NCI-H520; first compound 1 µM): 0.273
